Laboratory results reported in PubChem BioAssay (NCI).
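Each compound was tested at five concentrations against cells in 96-well plates for 48 hours. Abbreviation: GI50, concentration required for 50% inhibition of growth. Definition used: TGI = concentration required for complete inhibition of growth.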

Key:
Experiment in all cases: growth of human tumour cells (NCI), 48 h
786-0 renal = tested on: 786-0 renal
A498 renal = tested on: A498 renal
A549 NSCLC = tested on: A549 NSCLC
ACHN renal = tested on: ACHN renal
BT-549 breast = tested on: BT-549 breast
CAKI-1 renal = tested on: CAKI-1 renal
CCRF-CEM leukemia = tested on: CCRF-CEM leukemia
COLO 205 colon = tested on: COLO 205 colon
DU-145 prostate = tested on: DU-145 prostate
EKVX NSCLC = tested on: EKVX NSCLC
HCC-2998 colon = tested on: HCC-2998 colon
HCT-116 colon = tested on: HCT-116 colon
HCT-15 colon = tested on: HCT-15 colon
HL-60(TB) leukemia = tested on: HL-60(TB) leukemia
HOP-62 NSCLC = tested on: HOP-62 NSCLC
HOP-92 NSCLC = tested on: HOP-92 NSCLC
HS 578T breast = tested on: HS 578T breast
HT29 colon = tested on: HT29 colon
IGROV1 ovarian = tested on: IGROV1 ovarian
K-562 leukemia = tested on: K-562 leukemia
KM12 colon = tested on: KM12 colon
LOX IMVI melanoma = tested on: LOX IMVI melanoma
M14 melanoma = tested on: M14 melanoma
MALME-3M melanoma = tested on: MALME-3M melanoma
MCF7 breast = tested on: MCF7 breast
MDA-MB-231 breast = tested on: MDA-MB-231 breast
MDA-MB-435 = tested on: MDA-MB-435
MOLT-4 leukemia = tested on: MOLT-4 leukemia
NCI-H226 lung = tested on: NCI-H226 lung
NCI-H23 lung = tested on: NCI-H23 lung
NCI-H460 lung = tested on: NCI-H460 lung
NCI-H522 lung = tested on: NCI-H522 lung
NCI/ADR-RES ovarian = tested on: NCI/ADR-RES ovarian
OVCAR-3 ovarian = tested on: OVCAR-3 ovarian
OVCAR-4 ovarian = tested on: OVCAR-4 ovarian
OVCAR-5 ovarian = tested on: OVCAR-5 ovarian
OVCAR-8 ovarian = tested on: OVCAR-8 ovarian
PC-3 prostate = tested on: PC-3 prostate
RPMI-8226 leukemia = tested on: RPMI-8226 leukemia
RXF 393 renal = tested on: RXF 393 renal
SF-268 CNS = tested on: SF-268 CNS
SF-295 CNS = tested on: SF-295 CNS
SF-539 CNS = tested on: SF-539 CNS
SK-MEL-28 melanoma = tested on: SK-MEL-28 melanoma
SK-MEL-5 melanoma = tested on: SK-MEL-5 melanoma
SK-OV-3 ovarian = tested on: SK-OV-3 ovarian
SN12C renal = tested on: SN12C renal
SNB-19 CNS = tested on: SNB-19 CNS
SNB-75 CNS = tested on: SNB-75 CNS
SR leukemia = tested on: SR leukemia
SW-620 colon = tested on: SW-620 colon
T-47D breast = tested on: T-47D breast
TK-10 renal = tested on: TK-10 renal
U251 CNS = tested on: U251 CNS
UACC-257 melanoma = tested on: UACC-257 melanoma
UACC-62 melanoma = tested on: UACC-62 melanoma
UO-31 renal = tested on: UO-31 renal

## O=C1c2ccccc2C(=O)c2c(Nc3ccc(CCO)cc3)ccc(O)c21
786-0 renal
  GI50: 17.2 µM
  TGI: 60.1 µM
A498 renal
  GI50: 16.4 µM
  TGI: 40.2 µM
A549 NSCLC
  GI50: 6.43 µM
  TGI: > 100 µM
ACHN renal
  GI50: 4.3 µM
  TGI: 45.2 µM
BT-549 breast
  GI50: 9.82 µM
  TGI: 68.5 µM
CAKI-1 renal
  GI50: 6.81 µM
  TGI: > 100 µM
CCRF-CEM leukemia
  GI50: 3.61 µM
  TGI: 30.7 µM
COLO 205 colon
  GI50: 4.86 µM
  TGI: 21.7 µM
DU-145 prostate
  GI50: 7.67 µM
  TGI: 42.7 µM
EKVX NSCLC
  GI50: 4.69 µM
  TGI: > 100 µM
HCC-2998 colon
  GI50: 9.42 µM
  TGI: 28.3 µM
HCT-116 colon
  GI50: 8.71 µM
  TGI: > 100 µM
HCT-15 colon
  GI50: 4.28 µM
  TGI: 38.7 µM
HL-60(TB) leukemia
  GI50: 25.6 µM
  TGI: > 100 µM
HOP-62 NSCLC
  GI50: 21.4 µM
  TGI: 45.9 µM
HOP-92 NSCLC
  GI50: 4.52 µM
  TGI: 26.3 µM
HS 578T breast
  GI50: 3.52 µM
  TGI: 48 µM
HT29 colon
  GI50: 4.09 µM
  TGI: 14.9 µM
IGROV1 ovarian
  GI50: 1.41 µM
  TGI: 32.6 µM
K-562 leukemia
  GI50: 18.4 µM
  TGI: > 100 µM
KM12 colon
  GI50: 4.74 µM
  TGI: 36.3 µM
LOX IMVI melanoma
  GI50: 3.15 µM
  TGI: 14.5 µM
M14 melanoma
  GI50: 12.9 µM
  TGI: 61.4 µM
MALME-3M melanoma
  GI50: 12.8 µM
  TGI: 58 µM
MCF7 breast
  GI50: 0.504 µM
  TGI: 36.4 µM
MDA-MB-231 breast
  GI50: 3.3 µM
  TGI: 24.9 µM
MDA-MB-435
  GI50: 22.6 µM
  TGI: > 100 µM
MOLT-4 leukemia
  GI50: 10.7 µM
  TGI: > 100 µM
NCI-H226 lung
  GI50: 14.8 µM
  TGI: 48.9 µM
NCI-H23 lung
  GI50: 17.3 µM
  TGI: 88.7 µM
NCI-H460 lung
  GI50: 3.57 µM
  TGI: 15.1 µM
NCI-H522 lung
  GI50: 3.56 µM
  TGI: 16.7 µM
NCI/ADR-RES ovarian
  GI50: 17.6 µM
  TGI: 94.4 µM
OVCAR-3 ovarian
  GI50: 13.2 µM
  TGI: > 100 µM
OVCAR-4 ovarian
  GI50: 9.13 µM
  TGI: > 100 µM
OVCAR-5 ovarian
  GI50: 21.1 µM
  TGI: 62.6 µM
OVCAR-8 ovarian
  GI50: 17.4 µM
  TGI: > 100 µM
PC-3 prostate
  GI50: 6.34 µM
  TGI: 25.5 µM
RPMI-8226 leukemia
  GI50: 5.49 µM
  TGI: 36.5 µM
RXF 393 renal
  GI50: 6.54 µM
  TGI: 23.7 µM
SF-268 CNS
  GI50: 11 µM
  TGI: > 100 µM
SF-295 CNS
  GI50: 11.8 µM
  TGI: 47.4 µM
SF-539 CNS
  GI50: 10.2 µM
  TGI: 27.3 µM
SK-MEL-28 melanoma
  GI50: 12.3 µM
  TGI: 55.2 µM
SK-MEL-5 melanoma
  GI50: 11.7 µM
  TGI: 33.5 µM
SK-OV-3 ovarian
  GI50: 11 µM
  TGI: 64.8 µM
SN12C renal
  GI50: 16.9 µM
  TGI: > 100 µM
SNB-19 CNS
  GI50: 23 µM
  TGI: 72.2 µM
SNB-75 CNS
  GI50: 5.09 µM
  TGI: 29 µM
SR leukemia
  GI50: 7.71 µM
  TGI: > 100 µM
SW-620 colon
  GI50: 6.69 µM
  TGI: 67.5 µM
T-47D breast
  GI50: 0.987 µM
  TGI: 26.1 µM
TK-10 renal
  GI50: 21.8 µM
  TGI: > 100 µM
U251 CNS
  GI50: 8.33 µM
  TGI: 85.8 µM
UACC-257 melanoma
  GI50: 20.3 µM
  TGI: 70.7 µM
UACC-62 melanoma
  GI50: 10.2 µM
  TGI: 32.3 µM
UO-31 renal
  GI50: 2.2 µM
  TGI: 26.9 µM
